In patent US20240350669A1, “INHIBITION OF KYNURENINE SYNTHESIS AND/OR SIGNALING TO TREAT LEUKEMIA AND MYELODYSPLASIA” (THE TRUSTEES OF COLUMBIA UNIVERSITY IN THE CITY OF NEW YORK, priority 2022, published 2024):

Tests used:
WEHI-3B = test: Transplant of Ido1-edited WEHI-3B cells into mice; assay type: in vivo, mouse; conditions: edited WEHI-3B cells versus Cas9-only
Method: (§1) All leukemia models were introduced by intravenous (i.v.) injection and transplanted into non-irradiated secondary recipient experimental animals. BALB/c mice were used for the WEHI-3B leukemia model (0.5×10^6/cells/mouse) and C57BL/6J mice for MLL/AF9-dsRed (0.2×10^6/cells/mouse). Leukemia progression was assessed by fluorescence (MLL/AF9 dsRed) using the IVIS-Spectrum Optical Imaging System (Caliper, Perkin Elmer). Mice were shaved to reduce light attenuation.
The chemically modified sgRNAs targeting IDO1 were obtained and designed with at least 3 mismatches to decrease possible off target effects with the Synthego CRISPR design tool or the CRISPOR. […] In addition, lack of random effects due to TP53 activation, was shown by p16 and p21 mRNA level assessment in Cas9-only controls as well as in all the sgRNAs used. For 10^6 cells, 3 μg of TrueCut Cas9 protein V2 (Invitrogen) and 1.5 μg sgRNA were mixed in either SE (immortalized cell lines WEHI-3B and OCI-AML3) or P3 (primary mouse MLL/AF9 or patient-derived AML cells) buffer (Lonza, Amaxa X-Nucleofector Kit) and incubated 10 mins. Cells were then resuspended in their respective nucleofection buffer, mixed with the Cas9/sgRNA RNP complex or the Cas9 only as control, and electroporated with the Lonza 4D-Nucleofector (program DZ100, CM137 or DI100). […]

IDO1 = test: CRISPR/Cas9 Ido1 editing of primary murine MLL/AF9 cells; assay type: cell-based, mouse; conditions: for deletion efficiency: Ido1 exon 3, MLL/AF9 cells
Method: The chemically modified sgRNAs targeting IDO1 were obtained and designed with at least 3 mismatches to decrease possible off target effects with the Synthego CRISPR design tool or the CRISPOR. […] In addition, lack of random effects due to TP53 activation, was shown by p16 and p21 mRNA level assessment in Cas9-only controls as well as in all the sgRNAs used. For 10^6 cells, 3 μg of TrueCut Cas9 protein V2 (Invitrogen) and 1.5 μg sgRNA were mixed in either SE (immortalized cell lines WEHI-3B and OCI-AML3) or P3 (primary mouse MLL/AF9 or patient-derived AML cells) buffer (Lonza, Amaxa X-Nucleofector Kit) and incubated 10 mins. Cells were then resuspended in their respective nucleofection buffer, mixed with the Cas9/sgRNA RNP complex or the Cas9 only as control, and electroporated with the Lonza 4D-Nucleofector (program DZ100, CM137 or DI100). After electroporation, cells were cultured in their respective media at 37° C. until sequencing analysis and/or injection. The editing efficiency data, indel contribution and Sanger sequence analyses were performed with the Synthego Performance Analysis, ICE Analysis. 2019. v2.0. (Synthego).

MLL/AF9 cells = test: Transplant of Ido1-edited MLL/AF9 cells into WT non-irradiated recipients; assay type: in vivo, mouse; conditions: for disease progression: exon-3-edited MLL/AF9 cells versus Cas9-only
[1] = test system: serotonin-HTR1B signaling; test: Gene expression in bone of treated mice (targets of serotonin-HTR1B signaling); assay type: in vivo, mouse; conditions: treated versus vehicle-treated mice
Method: RNA isolation, cDNA preparation and real-time PCR analyses were carried out following standard protocols. Total RNA from cortical bone (clean, flushed femurs, were centrifugated 20 seconds at 10.000 g's to remove any remaining BM) was extracted using TRIzol (Invitrogen) followed by RNA clean-up using PureLink RNA Mini Kit (Ambion, Invitrogen). mRNA was reversed transcribed using random hexamers RNA-to-cDNA kit (Takara). Specific forward and reverse primers were used in conjunction with PowerUp SYBR Green Master Mix (Applied Biosystems) for quantitative PCR. Expression levels were analyzed using the 2^−ΔΔCt method and were normalized for the expression of the housekeeping gene Hprt unless otherwise stated.

MLL/AF9 AML cells = test: MLL/AF9 syngeneic leukemia model in non-irradiated WT mice; assay type: in vivo, mouse; conditions: PTH 80 μg/kg/day i.p. versus vehicle
Method: PTH bone-anabolic treatment: mice were injected intraperitoneally (i.p.) with PTH (Bachem) at 80 μg/kg/day in PBS. Injections started 1 week before MLL/AF9 injection and continued along 2-3 more weeks until mice were harvest.
SB224289-SB9-(TOCRIS Cat #1221) treatment: mice were injected intraperitoneally (i.p.) daily with SB9 (5 mg/kg in 0.9% NaCl) 1 week after leukemia injection and for the duration of the experiment. Assuming a 20 g body weight (BW) and a 2 ml total blood volume per mouse—as well as an even distribution of the drug-systemic concentration of SB9 should be approximately 50 μg/ml. Based on the MW of SB9 (557.09), the final concentration—at equal distribution—in blood should be 8.97521e-05 M (≈90 μM).
Epacadostat (AdooQ Cat #A15554)-treatment: for the WT C57BL/6J mice, treatment started at the same time than MLL/AF9 cells were transplanted. For the patient-derived AML cells (PDX) transplanted into NSG mice, treatment started 8 weeks after transplant, at the same time than Ara-C and during 3 weeks. Mice were supplied with ad libitum epacadostat-supplemented diet (Research Diets Inc.) at 800 mg/kg (low-dose) or 1.6 g/kg (high-dose). For the PDX transplanted into NSGS mice, treatment started 3 weeks after transplant, by daily gavage at 300 mg/kg (InvivoChem Cat #: V0942, dissolved in 10% DMSO, 40% PEG 300 and 50% NaCl 0.9%) for 2 weeks.
as §1

For “sgRNA #146: mouse sgRNA targeting Ido1 exon 3: CGCCAUGGUGAUGUACCCCA GGG (guide CGCCAUGGUGAUGUACCCCAGGG; listed as RNA, chemistry not fully specified)”, the survival (WEHI-3B) was “significant increased survivals”, the deletion efficiency (IDO1) was about 56% and the disease progression (MLL/AF9 cells) was “abrogated”.

In the case of “sgRNA #196: mouse sgRNA targeting Ido1 exon 3: CUGCCCACACUGAGCACGGA CGG (guide CUGCCCACACUGAGCACGGACGG; listed as RNA, chemistry not fully specified)”, the deletion efficiency (IDO1) is reported as about 40% and the disease progression (MLL/AF9 cells) is reported as “significantly attenuated”.

In the case of “sgRNA #203: mouse sgRNA targeting Ido1 exon 3: CAGUCCGUCCGUGCUCAGUG TGG (guide CAGUCCGUCCGUGCUCAGUGTGG; modified_base 21 OTHER; thymine)”, the deletion efficiency (IDO1) is reported as about 40% and the disease progression (MLL/AF9 cells) is reported as “significantly attenuated”.

In the case of “sgRNA #610: mouse sgRNA targeting Ido1 exon 4: UAGGGAACAGCAAUAUUGCG GGG (guide UAGGGAACAGCAAUAUUGCGGGG; listed as RNA, chemistry not fully specified)”, the “MLL/AF9 cells efficiently targeted” value (IDO1; Ido1 exon 4) is reported as about 70%, the “loss of expression of Ido1 at the mRNA level” value (IDO1; Ido1 exon 4, MLL/AF9 cells) is reported as 70% and the “mice with complete protection against leukemia progression that survived” value (MLL/AF9 cells; exon-4-edited MLL/AF9 cells) is reported as 36%. The survival (MLL/AF9 cells; exon-4-edited MLL/AF9 cells versus Cas9-only) was “significant increase in survival”.

B1: parathyroid hormone (peptide, UniProt P01270 32-115, looked up)
Parathyroid hormone: SVSEIQLMHNLGKHLNSMERVEWLRKKLQDVHNFVALGAPLAPRDAGSQRPRKKEDNVLVESHEKSLGEADKADVNVLTKAKSQ
modifications: Parathyroid hormone
notes: intermittent parathyroid hormone (Bachem), increases osteoblast numbers
For B1, the “expression of Cyclins D1, D2 and E1 in bone” value [1] was “did not change” and the “leukemia growth, disease progression and lifespan” value (MLL/AF9 AML cells) was “failed to curtail leukemia growth”.
